Results taken from PMC10518255, “A first-in-class pan-lysyl oxidase inhibitor impairs stromal remodeling and enhances gemcitabine response and survival in pancreatic cancer” (Nature Cancer, 2023).
Several values for one entry are separate records, joined by “and”; a condition that tells them apart may be missing. Equal values may be shown once.

Key:
[1] = test system: KPC PDAC tumors; experiment: SHG multiphoton imaging of fibrillar collagen in end-point KPC tumors; assay type: in vivo, mouse; conditions: for SHG peak signal intensity: 5 animals per group, 5 FOV per animal, single FOV values
Procedure: Fig. 4 PXS-5505 administered in a KPC in vivo survival study. a, Schematic of the KPC in vivo survival study. Presence of a primary tumor in KPC mice was confirmed by two independent researchers (positive diagnosis) before commencement of daily treatment (Tx) on one of four treatment arms as follows: vehicle, 0.9% saline; Gem, twice-weekly gemcitabine (100 mg kg^−1 i.p.); PXS-5505, daily PXS-5505 at 20 mg kg^−1 i.p.; and PXS-5505 + Gem, daily PXS-5505 at 20 mg kg^−1 i.p. + twice-weekly gemcitabine (100 mg kg^−1 i.p.). b, Table of median survival (since diagnosis/commencement of treatment) across the four treatment groups (n = 30 biologically independent animals (vehicle), n = 31 biologically independent animals (Gem), n = 36 biologically independent animals (PXS-5505), n = 46 biologically independent animals (PXS-5505 + Gem)). c, Kaplan–Meier curves for overall survival across treatment arms (n = 30 biologically independent animals (vehicle), n = 31 biologically independent animals (Gem), n = 36 biologically independent animals (PXS-5505), n = 46 biologically independent animals (PXS-5505 + Gem)). P values determined by log-rank (Mantel–Cox) test. d, Representative maximum intensity projections of SHG multiphoton imaging for tumors from each treatment group (n = 1 FOV taken from one biologically independent animal per group) at end point (scale bars, 100 μm) and quantification of SHG peak signal intensity (n = 5 biologically independent animals per group and five FOV per animal). Data are mean ± s.d. […] Quantification of metastases (n = 18 biologically independent animals (vehicle), n = 18 biologically independent animals (Gem), n = 17 biologically independent animals (PXS-5505), n = 15 biologically independent animals (PXS-5505 + Gem)). Data are mean ± s.d.
SHG imaging of fibrillar collagens was employed to analyze collagen density and organization as performed previously[28],[34],[58]. […] Intensity was recorded with a RLD HyD detector (440/20 nm). […] SHG signal intensities were measured using MATLAB (MathWorks) as described previously[28],[34],[58].

[2] = test system: pMLC2; experiment: Immunohistochemistry of end-point KPC tumors: stromal regions; assay type: in vivo, mouse; conditions: for Quantification of pMLC2 positive staining in stromal regions: Extended Data 6D, KPC tumours at endpoint, individual FOV
Procedure: All tissues or matrices, including patient TMAs, were fixed in 10% buffered formalin and embedded in paraffin. The 4-μm sections of samples were deparaffinized with xylene and rehydrated in graded ethanol washes. For immunohistochemistry, Bond Dewax Solution (AR9222) was used. Antigen retrieval was performed using Bond RX H2(30) protocol: HIER 30 min ER1 (citrate pH 6) OR ER2 (EDTA pH 9) at 100 °C. Slides were quenched in BOND Polymer Refine Detection (Leica Biosystems DS9800). […] Slides were digitized on an Aperio slide scanner and representative areas per tumor acquired and analyzed by researchers blinded to the conditions of the experiment.
Extended Data Fig. 6 PXS-5505 in combination with gemcitabine in a KPC model. a. Quantification of proliferating cells (Ki67 positive nuclear staining) in KPC tumors at end point, treated as indicated. 5 fields of view (500 μm × 500 μm) per mouse and 10 mice per cohort were scored. […] Quantification of percent coverage of αSMA positive staining in KPC tumors at end point, treated as indicated. 3 fields of view (1000 μm × 1000 μm) per mouse and 10 mice per cohort were scored. […] Quantification of percent coverage of PDGFR-ß positive staining in KPC tumors at end point, treated as indicated. 3 fields of view (1000 μm × 1000 μm) per mouse and 10 mice per cohort were scored. […] Quantification of pMLC2 positive staining in stromal regions of KPC tumors at end point, treated as indicated. 3 fields of view (500 μm × 500 μm) per mouse and 10 mice per cohort were scored. […] Quantification of tumor vasculature (CD31 positive staining) in KPC tumors at end point, treated as indicated. 3 fields of view (1000 μm × 1000 μm) per mouse and 10 mice per cohort were scored. […] Quantification of STAT3 activation (pSTAT3 positive nuclear staining) in KPC tumors at end point, treated as indicated. 3 fields of view (1000 μm × 1000 μm) per mouse and 5 mice per cohort were scored. […] Scale bars = 100 μm. g Quantification of macrophage infiltration (F4/80 positive staining) in KPC tumors at end point, treated as indicated. […]

SMILES | SHG peak signal intensity [1] | Quantification of pMLC2 positive staining in stromal regions [2] | fibrillar collagen / stromal content by SHG [1] | pMLC2 in stromal regions ([2]; KPC tumors at end point)
Cl.Cl.NC/C=C(\F)CS(=O)(=O)c1cccc2cccnc12.O [PXS-5505, (Z)-3-fluoro-4-(quinolin-8-ylsulfonyl)but-2-en-1-amine dihydrochloride monohydrate] | 45.7826 and 42.6725 and 46.4759 and 51.7331 and 29.3681 and 51.0162 and 24.7531 and 11.1698 and 19.0235 and 45.4063 and 19.8592 and 24.5743 and 17.8792 and 16.4101 and 14.0868 and 27.3224 and 22.509 and 34.8879 and 24.4703 and 26.4774 and 34.2776 and 17.1388 and 29.5006 and 45.3832 and 44.8772 | 16.71 and 49.28 and 7.302 and 93.81 and 91.78 and 78.97 and 53.28 and 54.73 and 45.61 and 13.2 and 20.93 and 42.23 and 36.07 and 17.51 and 40.83 and 47.04 and 47.28 and 39.88 and 19.03 and 15.52 and 73.22 and 64.14 and 60.07 and 90.97 and 8.8 and 20.91 and 61.66 and 4.245 and 28.34 and 17.54 |  | 
Nc1ccn([C@@H]2O[C@H](CO)[C@@H](O)C2(F)F)c(=O)n1 [Gem, gemcitabine] | 116.837 and 121.251 and 74.7808 and 58.0704 and 58.6614 and 88.5172 and 66.9647 and 76.4458 and 85.1379 and 61.658 and 86.6036 and 56.3648 and 49.2982 and 91.4138 and 56.7061 and 67.2683 and 73.645 and 75.3134 and 83.1972 and 82.1163 and 64.6996 and 72.2796 and 40.261 and 45.2578 and 54.2825 | 92.08 and 84.2 and 87.45 and 82.3 and 82.92 and 94.71 and 90.49 and 43.06 and 73.39 and 39.68 and 25.28 and 42.05 and 30.69 and 23.6 and 44.73 and 91.07 and 86.73 and 81.83 and 77.4 and 63.11 and 93.35 and 65.58 and 88.53 and 67.95 and 49 and 89.81 and 73.17 and 62.17 and 93.12 and 52.2 | significantly increased stromal content | increased pMLC2
